Source: US20240391880A1, “KCa3.1 INHIBITORS FOR PODOCYTE PROTECTION” (Icahn School of Medicine at Mount Sinai, priority 2021, published 2024)
“Also recorded” adds a separate entry of the source.

Key:
[1] = molecular target: T1, KCa3.1 (Mus musculus, UniProt O89109); test: Whole-cell patch clamp electrophysiology in YAP silenced podocytes; assay type: cell-based
T1 construct: endogenous in cells; host or cells: YAP shRNA (YAP KD) conditionally immortalized mouse podocytes
Procedure: (§1) Cells plated on coverslips are transferred to a submersion recording chamber and continuously perfused (2-4 ml/min) with RPMI cell culture medium containing (in mM): NaCl 124, KCl 2.5, NaH2PO4 1.2, NaHCO3 24, HEPES 5, glucose 12.5, MgSO4 2, and CaCl2 2, pH 7.4. The solution is continuously bubbled with 95% O2/5% CO2, and recordings are obtained at 25±1° C. Cells are recorded under infrared differential contrast optics (BX51; Olympus). After control readings are measured, the solution is then switched to the solutions containing the molecules. […] Recording pipettes (3-5 MΩ), pulled from borosilicate glass, are filled with internal solution containing (in mM): K gluconate 120, HEPES 10, KCl 20, MgCl2 1, MgATP 2, Na2GTP 0.5, Na-phosphocreatine 10, CaCl2 1.71 and EGTA 2, pH 7.25. Data are acquired with a Multiclamp 700 A amplifier (Molecular Devices), subsequently filtered at 10 kHz and digitized at 10 kHz, and analysis is performed with pClamp 11 software (Molecular Devices). Whole-cell data will be collected. All data will be recorded at room temperature.

[2] = molecular target: T2, KCa3.1 (Homo sapiens, UniProt O15554); test: Whole-cell patch clamp electrophysiology in KCNN4 overexpression podocytes; assay type: cell-based, mouse; settings: KCNN4 OE podocytes
T2 construct: expressed in transfected cells; host or cells: immortalized mouse podocytes (KCNN4 OE)
Procedure: as §1

[3] = system: YAP knockdown podocytes; test: Rescue of YAP knockdown podocyte morphology (phalloidin/paxillin staining); assay type: cell-based, mouse
Procedure: Podocytes were cultured as previously described (2, 14, 35). Briefly, conditionally immortalized murine podocytes were cultured in Dulbecco's modified Eagle's medium (DMEM; Life Technologies) supplemented with 10% heat-inactivated fetal bovine serum (Life Technologies) and 100 U/mL penicillin-streptomycin (Life Technologies) on type I collagen (Corning, Corning, NY) coated dishes or flasks. Undifferentiated podocytes were maintained at 33° C. in the presence of 10 U/mL mouse γ-interferon (Cell Sciences, Canton, MA) to drive T-antigen expression. To induce differentiation, podocytes were thermo-shifted to a 37° C. incubator and switched to medium lacking γ-interferon.
The pLKO.1 plasmids (YAP shRNA or control shRNA) along with the helper plasmids psPAX^2 and pMD2.G were transfected into HEK293T cells at 70% confluence using FuGENE 6 (Promega). Medium was replaced 16-18 h after transfection. 36 and 60 h after transfection, virus-containing supernatants were harvested and centrifuged at 3,000 rpm for 5 min. Viral particles were then passed through a 0.45-μm filter. The supernatants were subsequently used for the infection of target cells in the presence of 4 μg/ml Polybrene (Sigma). […]
Changes in the organization of the actin cytoskeleton were assessed by phalloidin staining and paxillin staining as described previously. […]

[4] = system: YAP KD podocytes; test: Intracellular calcium dynamics in YAP KD podocytes (Fluo-3, ATP stimulation); assay type: cell-based, mouse; settings: for CaD50 / time to peak of calcium uptake: YAP silenced podocytes, upon ATP stimulation
Procedure: Intracellular calcium dynamics were measured in wild type and YAP KD podocytes loaded with Fluo-3, stimulated with ATP ([…]) and imaged for 3 minutes at 1 frame per 0.5 seconds on a high-speed Zeiss 880 laser scanning confocal microscope with automated CO2incubator stage.
Isolated cells were superfused with Tyrode solution containing (mm): NaCl 140, KCl
5, Hepes 5, NaH2PO4 1, MgCl2 1, CaCl2 1.8, glucose 10 (pH 7.4). To allow for confocal imaging of [Ca^2+]i, cells were loaded for 30 min with 5 μm fluo-3 AM (Molecular Probes, Eugene, OR, USA), then washed and stored for 20 min in Tyrode solution to enable dye de-esterification. Confocal imaging in line-scan mode was performed on a Zeiss 510 microscope. Cells were scanned with light at 488 nm from an argon-ion laser, and fluorescence above 505 nm was recorded. To generate repeated Ca^2+ sparks at a limited number of locations, 50 nm ryanodine (Calbiochem, San Diego, CA, USA) was added to the external solution.

[5] = system: podocytes; test: LPS-induced podocyte injury in vitro; assay type: cell-based, mouse; settings: LPS 100 μg/ml for 24 hrs, co-treatment
Procedure: (§2) The ability of KCa3.1 inhibitors to protect from podocyte injury induced by lipopolysaccharide (LPS) was tested in vitro and in vivo. […] The protective effect was tested in vivo by administering LPS to 8-week old C57BL/6J mice at 0 hr and 24 hrs.
Differentiated podocytes were exposed to different doses of LPS (50-100 μg/ml) for 24 hours. Changes in the organization of the actin cytoskeleton were assessed by phalloidin staining and paxillin staining as described previously. Each set of experiments was repeated at least three times. Briefly, cells were fixed with 4% PFA, 4% sucrose in PBS at room temperature for 15 minutes and then permeabilized with 0.3% Triton X-100 in PBS with washes in between. Coverslips were washed 3× with PBS and incubated blocking solution (2% FCS, 2% BSA, 0.2% fish gelatin) for 30 minutes at room temperature before further incubation with one of the primary antibodies for 1 hour at room temperature. For double labeling, sections were washed three times with PBS for 5 minutes, and the second primary antibody was applied for 60 minutes. Antigen-antibody complexes were visualized with secondary antibodies 1:500 (Life Technologies) conjugated with fluorochrome (Alexa 488, Alexa 594, or Alexa 647) for 1 hour at room temperature. For stress fibers, phalloidin-rhodamine was used. For the nuclei, we used DAPI. Confocal microscopy with Leica DMI was done.

[6] = system: C57BL/6J mice; test: LPS-induced glomerular disease in mice; assay type: in vivo, mouse; settings: for albuminuria: 48 hours after LPS injection, compound given at 12 hr and 24 hr
Procedure: as §2
Albuminuria was qualitatively screened using a 10% SDS-PAGE gel followed by Coomassie-blue staining. BSA standards of 0.1, 0.5, 5 μg were used and 5 μl urine was used from each sample to quantify urine albumin in duplicate using commercial kits, according to the manufacturer's protocol (mouse albumin ELISA, Bethyl Laboratories).

[7] = expected K+ equilibrium (VK) calculated at -83 mV

SMILES | KCa3.1 conductance [1] | KCa3.1 conductance [2] | rescue from focal adhesion loss and F-actin reorganization [3] | crossover potential of before and after I-V plots [1, 7] | stimuli to peak ([4]; YAP knockdown cells, 5uM and 10 uM) | CaD50 [4] | time to peak of calcium uptake [4] | LPS-induced actin cytoskeletal reorganization and loss of focal adhesions [5] | albuminuria [6] | foot process injury (scanning EM) ([6]; LPS treated mice) | crossover potential of before and after I-V plots [2, 7]
Cc1cc2nc(N)oc2c2ccccc12 [SKA121, reference compound] | enhanced | enhanced | – | – | – | – | – | – | – | – | –
Brc1ccccc1-c1nc2ccccc2[nH]1 [BT563, 2-(2-bromophenyl)-1H-benzo[d]imidazole] | decreased KCa3.1 conductance | decreased KCa3.1 conductance | most consistently rescued | closer to the expected K+ equilibrium (VK) | significantly decreased | decreased | decreased | abrogated | statistically significant decrease; also recorded: decreased albuminuria | not seen; also recorded: rescue of LPS-induced podocyte foot process disruption | –
Clc1ccccc1C(c1ccccc1)(c1ccccc1)n1cccn1 [TRAM-34, reference compound] | decreased | decreased | – | – | – | decreased | decreased | – | – | – | did cross at the expected K+ equilibrium
Cc1ccn2cc(-c3ccccc3)nc2c1 [BT564, 7-methyl-2-phenylimidazo[1,2-α]pyridine] | decreased KCa3.1 conductance | decreased KCa3.1 conductance | most consistently rescued | – | – | decreased | decreased | abrogated | not | – | –
